pIC50: −log10 of the molar value.
What was measured:
KDR = KDR (Homo sapiens (Human), UniProt P35968); test: KDR autophosphorylation ELISA in HUVEC cells; format: cell-based; conditions: cellular, VEGF165 stimulated
Outline: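 Compound pretreatment (1 h, 0.3% DMSO) of serum-starved HUVEC preceded a 5 min pulse of 100 ng/mL VEGF165, after which cells were lysed. Phospho-KDR was quantified by ELISA relative to stimulated and unstimulated controls.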

AXL = AXL (Homo sapiens (Human), UniProt P30530); test: AXL autophosphorylation ELISA in A-172 cells; format: cell-based; conditions: cellular, Gas6 stimulated
Outline: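 Serum-starved (24 h) A-172 glioblastoma cells pretreated 1 h with compounds (8-point curve, 0.3% DMSO), then stimulated 15 min with 1 μg/mL Gas6. Lysate phospho-AXL measured by sandwich ELISA against a phospho-AXL standard; IC50 from 4-parameter logistic fit between DMSO and reference-inhibitor controls.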

AXL, sequence (P30530 26-894): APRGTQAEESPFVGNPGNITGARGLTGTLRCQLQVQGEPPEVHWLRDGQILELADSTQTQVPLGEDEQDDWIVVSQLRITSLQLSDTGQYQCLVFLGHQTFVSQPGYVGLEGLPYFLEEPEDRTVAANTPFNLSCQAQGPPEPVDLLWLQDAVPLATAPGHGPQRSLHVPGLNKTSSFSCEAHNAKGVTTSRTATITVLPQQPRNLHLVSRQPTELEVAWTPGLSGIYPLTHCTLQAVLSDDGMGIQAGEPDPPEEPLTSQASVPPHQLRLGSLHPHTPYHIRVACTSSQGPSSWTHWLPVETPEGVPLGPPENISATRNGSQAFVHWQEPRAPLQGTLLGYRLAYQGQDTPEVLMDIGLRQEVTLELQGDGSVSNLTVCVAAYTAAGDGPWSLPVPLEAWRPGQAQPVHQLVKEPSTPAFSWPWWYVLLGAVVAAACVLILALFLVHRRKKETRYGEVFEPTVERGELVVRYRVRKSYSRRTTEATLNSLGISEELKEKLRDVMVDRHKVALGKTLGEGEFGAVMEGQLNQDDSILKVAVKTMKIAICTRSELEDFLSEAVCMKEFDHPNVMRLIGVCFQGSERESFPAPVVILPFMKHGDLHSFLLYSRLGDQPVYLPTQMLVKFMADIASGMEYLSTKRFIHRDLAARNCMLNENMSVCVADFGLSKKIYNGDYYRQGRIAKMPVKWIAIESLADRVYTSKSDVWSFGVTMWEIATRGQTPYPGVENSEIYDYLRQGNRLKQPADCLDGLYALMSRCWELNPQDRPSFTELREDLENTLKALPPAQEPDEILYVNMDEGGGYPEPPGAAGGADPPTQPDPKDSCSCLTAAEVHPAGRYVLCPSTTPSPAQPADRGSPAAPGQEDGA
KDR, sequence (P35968 20-1356): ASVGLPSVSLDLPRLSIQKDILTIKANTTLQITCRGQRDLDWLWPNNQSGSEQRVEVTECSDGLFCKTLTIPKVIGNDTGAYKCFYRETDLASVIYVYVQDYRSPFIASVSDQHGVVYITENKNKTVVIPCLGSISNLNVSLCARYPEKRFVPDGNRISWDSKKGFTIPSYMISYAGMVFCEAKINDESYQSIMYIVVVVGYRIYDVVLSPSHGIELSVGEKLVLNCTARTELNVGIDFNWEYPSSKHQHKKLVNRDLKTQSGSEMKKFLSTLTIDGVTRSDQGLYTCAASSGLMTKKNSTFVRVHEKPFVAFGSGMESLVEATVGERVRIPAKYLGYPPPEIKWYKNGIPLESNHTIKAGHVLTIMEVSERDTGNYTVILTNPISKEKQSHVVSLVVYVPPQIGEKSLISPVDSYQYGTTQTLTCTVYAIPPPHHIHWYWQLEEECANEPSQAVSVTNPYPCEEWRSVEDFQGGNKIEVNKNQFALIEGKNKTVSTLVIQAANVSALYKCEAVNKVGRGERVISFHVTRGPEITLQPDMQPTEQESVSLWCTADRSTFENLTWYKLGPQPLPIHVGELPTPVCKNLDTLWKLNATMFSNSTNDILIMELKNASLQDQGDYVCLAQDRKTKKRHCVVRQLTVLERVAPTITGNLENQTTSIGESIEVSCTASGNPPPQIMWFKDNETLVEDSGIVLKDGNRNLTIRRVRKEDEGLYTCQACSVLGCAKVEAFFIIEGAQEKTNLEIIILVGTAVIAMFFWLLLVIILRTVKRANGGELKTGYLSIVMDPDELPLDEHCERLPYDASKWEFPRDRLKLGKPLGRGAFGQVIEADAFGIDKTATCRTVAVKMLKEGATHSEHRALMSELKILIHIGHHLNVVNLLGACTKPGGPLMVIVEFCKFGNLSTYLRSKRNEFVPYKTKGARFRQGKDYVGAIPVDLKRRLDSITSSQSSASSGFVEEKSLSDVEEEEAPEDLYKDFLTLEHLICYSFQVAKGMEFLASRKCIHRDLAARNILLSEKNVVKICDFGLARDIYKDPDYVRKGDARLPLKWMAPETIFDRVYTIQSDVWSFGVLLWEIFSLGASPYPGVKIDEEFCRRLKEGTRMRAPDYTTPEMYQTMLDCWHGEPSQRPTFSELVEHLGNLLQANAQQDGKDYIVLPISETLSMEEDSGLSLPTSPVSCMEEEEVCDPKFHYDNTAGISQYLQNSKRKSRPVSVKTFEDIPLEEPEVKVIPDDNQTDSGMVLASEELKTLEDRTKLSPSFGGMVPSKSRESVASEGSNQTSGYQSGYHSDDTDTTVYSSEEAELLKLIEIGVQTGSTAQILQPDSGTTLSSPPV

| pIC50 (KDR) | pIC50 (AXL) | SMILES |
| --- | --- | --- |
| ≥ 8.00 | ≥ 8.00 | COC(=O)c1cc2c(Oc3ccc(NC(=O)C4(C(=O)Nc5ccc(F)cc5)CC4)cc3F)ccnc2cc1OC [Compound 129, methyl 4-[2-fluoro-4-[[1-[(4-fluorophenyl)carbamoyl]cyclopropanecarbonyl]amino]phenoxy]-7-methoxyquinoline-6-carboxylate] |
| ≥ 8.00 | ≥ 8.00 | COc1cc2nccc(Oc3ccc(NC(=O)C4(C(=O)Nc5ccc(F)cc5)CC4)cc3)c2cc1-c1cn[nH]c1 [Compound 186, 1-N′-(4-fluorophenyl)-1-N-[4-[7-methoxy-6-(1H-pyrazol-4-yl)quinolin-4-yl]oxyphenyl]cyclopropane-1,1-dicarboxamide] |
| 6.52 to 7.00 | 7.00 to 8.00 | NC(=O)c1ccc2nccc(Oc3ccc(NC(=O)C4(C(=O)Nc5ccc(F)cc5)CC4)cc3)c2c1 [Compound 58, 1-N-[4-(6-carbamoylquinolin-4-yl)oxyphenyl]-1-N′-(4-fluorophenyl)cyclopropane-1,1-dicarboxamide] |
| 7.00 to 8.00 | 7.00 to 8.00 | COc1cc2nccc(Oc3ccc(NC(=O)C4(C(=O)Nc5ccc(F)cc5)CC4)cc3)c2cc1C1(O)COC1 [Compound 196, 1-N′-(4-fluorophenyl)-1-N-[4-[6-(3-hydroxyoxetan-3-yl)-7-methoxyquinolin-4-yl]oxyphenyl]cyclopropane-1,1-dicarboxamide] |
| 7.00 to 8.00 | ≥ 8.00 | COc1cc2nccc(Oc3ccc(NC(=O)C4(C(=O)Nc5ccc(F)cc5)CC4)cc3)c2cc1C(=O)NC1CN(C)C1 [Compound 14, 1-N′-(4-fluorophenyl)-1-N-[4-[7-methoxy-6-[(1-methylazetidin-3-yl)carbamoyl]quinolin-4-yl]oxyphenyl]cyclopropane-1,1-dicarboxamide] |
| 7.00 to 8.00 | 6.52 to 7.00 | COc1cc2nccc(Oc3ccc(NC(=O)C4(C(=O)Nc5ccc(F)cc5)CC4)cc3)c2cc1C1(O)CN(C(=O)OC(C)(C)C)C1 [Compound 195, tert-butyl 3-[4-[4-[[1-[(4-fluorophenyl)carbamoyl]cyclopropanecarbonyl]amino]phenoxy]-7-methoxyquinolin-6-yl]-3-hydroxyazetidine-1-carboxylate] |
| ≥ 8.00 | ≥ 8.00 | COc1cc2nccc(Oc3ccc(NC(=O)C4(C(=O)Nc5ccc(F)cc5)CC4)cc3)c2cc1N1CC(O)C1 [Compound 199, 1-N′-(4-fluorophenyl)-1-N-[4-[6-(3-hydroxyazetidin-1-yl)-7-methoxyquinolin-4-yl]oxyphenyl]cyclopropane-1,1-dicarboxamide] |
| ≥ 8.00 | 7.00 to 8.00 | COc1cc2nccc(Oc3ccc(NC(=O)C4(C(=O)Nc5ccc(F)cc5)CC4)cc3)c2cc1C(=O)NC1COC1 [Compound 13, 1-N′-(4-fluorophenyl)-1-N-[4-[7-methoxy-6-(oxetan-3-ylcarbamoyl)quinolin-4-yl]oxyphenyl]cyclopropane-1,1-dicarboxamide] |
| 7.00 to 8.00 | 7.00 to 8.00 | COc1cc2nccc(Oc3ccc(NC(=O)C4(C(=O)Nc5ccc(F)cc5)CC4)cc3)c2cc1C1CC1 [Compound 187, 1-N-[4-(6-cyclopropyl-7-methoxyquinolin-4-yl)oxyphenyl]-1-N′-(4-fluorophenyl)cyclopropane-1,1-dicarboxamide] |
| 7.00 to 8.00 | ≥ 8.00 | COc1cc2nccc(Oc3ccc(NC(=O)C4(C(=O)Nc5ccc(F)cc5)CC4)cc3)c2cc1-c1ccc[nH]1 [Compound 188, 1-N′-(4-fluorophenyl)-1-N-[4-[7-methoxy-6-(1H-pyrrol-2-yl)quinolin-4-yl]oxyphenyl]cyclopropane-1,1-dicarboxamide] |
| ≥ 8.00 | 7.00 to 8.00 | COC(=O)c1cc2c(Oc3ccc(NC(=O)C4(C(=O)Nc5ccc(F)cc5)CC4)cc3Cl)ccnc2cc1OC [Compound 128, methyl 4-[2-chloro-4-[[1-[(4-fluorophenyl)carbamoyl]cyclopropanecarbonyl]amino]phenoxy]-7-methoxyquinoline-6-carboxylate] |
| 7.00 to 8.00 | 7.00 to 8.00 | COc1cc2nccc(Oc3ccc(NC(=O)C4(C(=O)Nc5ccc(F)cc5)CC4)cc3)c2cc1-c1cnoc1 [Compound 183, 1-N′-(4-fluorophenyl)-1-N-[4-[7-methoxy-6-(1,2-oxazol-4-yl)quinolin-4-yl]oxyphenyl]cyclopropane-1,1-dicarboxamide] |
| ≥ 8.00 | 7.00 to 8.00 | COC(=O)c1cc2nccc(Oc3ccc(NC(=O)C4(C(=O)Nc5ccc(F)cc5)CC4)cc3)c2cc1OC [Compound 150, methyl 4-[4-[[1-[(4-fluorophenyl)carbamoyl]cyclopropanecarbonyl]amino]phenoxy]-6-methoxyquinoline-7-carboxylate] |
| 7.00 to 8.00 | 7.00 to 8.00 | CNC(=O)c1cc2nccc(Oc3ccc(NC(=O)C4(C(=O)Nc5ccc(F)cc5)CC4)cc3)c2cc1OC [Compound 153, 1-N′-(4-fluorophenyl)-1-N-[4-[6-methoxy-7-(methylcarbamoyl)quinolin-4-yl]oxyphenyl]cyclopropane-1,1-dicarboxamide] |
| 7.00 to 8.00 | 7.00 to 8.00 | COc1cc2nccc(Oc3ccc(NC(=O)C4(C(=O)Nc5ccc(F)cc5)CC4)cc3)c2cc1-c1ccccn1 [Compound 176, 1-N′-(4-fluorophenyl)-1-N-[4-(7-methoxy-6-pyridin-2-ylquinolin-4-yl)oxyphenyl]cyclopropane-1,1-dicarboxamide] |
| < 6.52 | 6.52 to 7.00 | COc1cc2nccc(Oc3ccc(NC(=O)C4(C(=O)Nc5ccc(F)cc5)CC4)cc3)c2cc1C1(O)CNC1 [Compound 197, 1-N′-(4-fluorophenyl)-1-N-[4-[6-(3-hydroxyazetidin-3-yl)-7-methoxyquinolin-4-yl]oxyphenyl]cyclopropane-1,1-dicarboxamide] |
| 7.00 to 8.00 | 7.00 to 8.00 | COc1cc2nccc(Oc3ccc(NC(=O)C4(C(=O)Nc5ccc(F)cc5)CC4)cc3)c2cc1N1CCC1 [Compound 198, 1-N-[4-[6-(azetidin-1-yl)-7-methoxyquinolin-4-yl]oxyphenyl]-1-N′-(4-fluorophenyl)cyclopropane-1,1-dicarboxamide] |
| 7.00 to 8.00 | 7.00 to 8.00 | COc1cc2nccc(Oc3ccc(NC(=O)C4(C(=O)Nc5ccc(F)cc5)CC4)cc3)c2cc1-c1ccncc1 [Compound 202, 1-N′-(4-Fluorophenyl)-1-N-[4-(7-methoxy-6-pyridin-4-ylquinolin-4-yl)oxyphenyl]cyclopropane-1,1-dicarboxamide] |
| 6.52 to 7.00 | 7.00 to 8.00 | COc1cc2nccc(Oc3ccc(NC(=O)C4(C(=O)Nc5ccc(F)cc5)CC4)cc3)c2cc1C(=O)N1CC(O)C1 [Compound 16, 1-N′-(4-fluorophenyl)-1-N-[4-[6-(3-hydroxyazetidine-1-carbonyl)-7-methoxyquinolin-4-yl]oxyphenyl]cyclopropane-1,1-dicarboxamide] |
| 6.52 to 7.00 | 7.00 to 8.00 | COc1cc2nccc(Oc3ccc(NC(=O)C4(C(=O)Nc5ccc(F)cc5)CC4)cc3)c2cc1-c1cccc(C#N)c1F [Compound 175, 1-N-[4-[6-(3-cyano-2-fluorophenyl)-7-methoxyquinolin-4-yl]oxyphenyl]-1-N′-(4-fluorophenyl)cyclopropane-1,1-dicarboxamide] |
| 6.52 to 7.00 | 7.00 to 8.00 | COc1cc2c(Oc3ccc(NC(=O)C4(C(=O)Nc5ccc(F)cc5)CC4)cc3)ccnc2cc1C(N)=O [Compound 152, 1-N-[4-(7-carbamoyl-6-methoxyquinolin-4-yl)oxyphenyl]-1-N′-(4-fluorophenyl)cyclopropane-1,1-dicarboxamide] |
| 7.00 to 8.00 | 7.00 to 8.00 | COc1cc2nccc(Oc3ccc(NC(=O)C4(C(=O)Nc5ccc(F)cc5)CC4)cc3)c2cc1-c1cccnc1 [Compound 201, 1-N′-(4-Fluorophenyl)-1-N-[4-(7-methoxy-6-pyridin-3-ylquinolin-4-yl)oxyphenyl]cyclopropane-1,1-dicarboxamide] |
| 7.00 to 8.00 | 7.00 to 8.00 | COc1cc2nccc(Oc3ccc(NC(=O)C4(C(=O)Nc5ccc(F)cc5)CC4)cc3)c2cc1C#N [Compound 37, 1-N-[4-(6-cyano-7-methoxyquinolin-4-yl)oxyphenyl]-1-N′-(4-fluorophenyl)cyclopropane-1,1-dicarboxamide] |
| ≥ 8.00 | 7.00 to 8.00 | COc1cc2nccc(Oc3ccc(NC(=O)C4(C(=O)Nc5ccc(F)cc5)CC4)cc3)c2cc1S(C)(=O)=O [Compound 210, 1-N′-(4-Fluorophenyl)-1-N-[4-(7-methoxy-6-methylsulfonylquinolin-4-yl)oxyphenyl]cyclopropane-1,1-dicarboxamide] |
| 7.00 to 8.00 | 7.00 to 8.00 | COc1cc2nccc(Oc3ccc(NC(=O)C4(C(=O)Nc5ccc(F)cc5)CC4)cc3)c2cc1N1CC(F)(F)C1 [Compound 200, 1-N-[4-[6-(3,3-difluoroazetidin-1-yl)-7-methoxyquinolin-4-yl]oxyphenyl]-1-N′-(4-fluorophenyl)cyclopropane-1,1-dicarboxamide] |
| < 6.52 | 6.52 to 7.00 | COc1cc2nccc(Oc3ccc(NC(=O)C4(C(=O)Nc5ccc(F)cc5)CC4)cc3)c2cc1-c1c(C)noc1C [Compound 184, 1-N-[4-[6-(3,5-dimethyl-1,2-oxazol-4-yl)-7-methoxyquinolin-4-yl]oxyphenyl]-1-N′-(4-fluorophenyl)cyclopropane-1,1-dicarboxamide] |
| 6.52 to 7.00 | 6.52 to 7.00 | CNC(=O)c1ccc2nccc(Oc3ccc(NC(=O)C4(C(=O)Nc5ccc(F)cc5)CC4)cc3)c2c1 [Compound 59, 1-N′-(4-fluorophenyl)-1-N-[4-[6-(methylcarbamoyl)quinolin-4-yl]oxyphenyl]cyclopropane-1,1-dicarboxamide] |
